US20220098251A1, “PEPTIDE TAGS FOR LIGAND INDUCED DEGRADATION OF FUSION PROTEINS” (DANA-FARBER CANCER INSTITUTE, INC., priority 2018, published 2022)
Positions count from the first letter of the chain named. Names and notes keep the numbering of the source.

Tests used:
eGFP-IKZF1Δ fusion = molecular target: T1, eGFP-IKZF1Δ fusion (Homo sapiens, UniProt Q13422); test: Cellular degradation assay of eGFP-IKZF1Δ reporter by flow cytometry; assay type: cell-based; details: Flip-In 293 cells, 5 h, eGFP/mCherry
T1 construct: eGFP (followed by P2A); expressed in transfected cells
T1 sequence (Q96SW2 whole entry partner, one chain of several, the tested form may be a part): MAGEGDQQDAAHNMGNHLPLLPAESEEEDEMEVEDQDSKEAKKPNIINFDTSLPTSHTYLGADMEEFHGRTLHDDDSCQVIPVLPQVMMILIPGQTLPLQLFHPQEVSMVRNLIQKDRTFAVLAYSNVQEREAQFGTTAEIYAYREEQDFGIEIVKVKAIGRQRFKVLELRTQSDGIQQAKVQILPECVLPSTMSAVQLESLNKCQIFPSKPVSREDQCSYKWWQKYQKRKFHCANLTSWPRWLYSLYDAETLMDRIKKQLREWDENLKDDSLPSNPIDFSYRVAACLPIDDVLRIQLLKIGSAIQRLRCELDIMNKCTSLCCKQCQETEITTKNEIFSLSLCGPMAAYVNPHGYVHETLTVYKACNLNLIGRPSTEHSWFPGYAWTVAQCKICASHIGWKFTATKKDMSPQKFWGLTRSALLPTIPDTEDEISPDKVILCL
T1 sequence (Q16531 whole entry partner, one chain of several, the tested form may be a part): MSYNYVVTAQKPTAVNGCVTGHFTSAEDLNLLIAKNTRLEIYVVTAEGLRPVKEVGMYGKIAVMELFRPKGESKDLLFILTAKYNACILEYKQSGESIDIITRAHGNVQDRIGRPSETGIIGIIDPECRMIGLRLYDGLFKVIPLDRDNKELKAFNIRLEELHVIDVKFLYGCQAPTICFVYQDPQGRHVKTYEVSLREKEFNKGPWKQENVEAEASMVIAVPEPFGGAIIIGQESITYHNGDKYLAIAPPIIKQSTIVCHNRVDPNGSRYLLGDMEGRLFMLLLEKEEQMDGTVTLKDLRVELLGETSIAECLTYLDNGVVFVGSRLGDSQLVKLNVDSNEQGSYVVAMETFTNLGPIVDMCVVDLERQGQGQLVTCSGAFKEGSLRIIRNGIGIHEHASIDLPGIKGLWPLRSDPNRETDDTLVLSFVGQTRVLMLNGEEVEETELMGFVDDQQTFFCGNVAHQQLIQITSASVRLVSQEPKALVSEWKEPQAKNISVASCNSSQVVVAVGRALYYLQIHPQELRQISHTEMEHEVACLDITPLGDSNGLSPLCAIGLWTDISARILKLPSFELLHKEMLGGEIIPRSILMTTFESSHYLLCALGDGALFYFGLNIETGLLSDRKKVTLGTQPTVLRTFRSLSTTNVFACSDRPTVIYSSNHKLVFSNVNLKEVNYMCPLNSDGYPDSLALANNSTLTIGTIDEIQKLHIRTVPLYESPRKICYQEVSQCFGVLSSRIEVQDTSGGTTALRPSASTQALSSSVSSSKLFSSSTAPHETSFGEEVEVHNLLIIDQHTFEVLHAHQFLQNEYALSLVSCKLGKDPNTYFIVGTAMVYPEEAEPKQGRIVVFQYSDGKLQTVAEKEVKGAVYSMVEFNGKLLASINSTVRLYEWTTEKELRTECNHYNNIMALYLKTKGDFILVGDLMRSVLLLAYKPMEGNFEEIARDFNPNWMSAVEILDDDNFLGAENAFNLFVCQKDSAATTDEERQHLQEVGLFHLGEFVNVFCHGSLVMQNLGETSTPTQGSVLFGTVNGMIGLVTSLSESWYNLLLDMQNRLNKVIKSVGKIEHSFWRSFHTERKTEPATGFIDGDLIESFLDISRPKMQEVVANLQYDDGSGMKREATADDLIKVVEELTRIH
Procedure: Following 2-3 passage cycle FACS (FACSAria™ II, BD) was used to enrich for cells expressing eGFP and mCherry.
Signal from at least 3,000 events per well was acquired, and the eGFP and mCherry florescence monitored. Data were analyzed using FlowJo™ (FlowJo™, LCC). […] The eGFP protein abundance relative to mCherry was then quantified as a ten-fold amplified ratio for each individual cell using the formula: 10×eGFP/mCherry. The median of the ratio was then calculated per set, normalized to the median of the DMSO ratio.
Quantitative assessment of cellular degradation of a IKZF1-EGFP reporter using flow cytometry analysis. Cells stably expressing IKZF1Δ-EGFP and mCherry were treated with increasing concentrations of the indicated molecules and the EGFP and mCherry signals followed using flow cytometry analysis. Data in this figure are presented as means±s.d. from four cell culture replicates (n=4).

[1] = test system: Jurkat cells expressing individual ZFs in the Cilantro 2 protein degradation reporter; test: Drug dependent degradation of ZFs in Cilantro 2 protein degradation reporter lentivector; assay type: cell-based; details: Cilantro 2, Jurkat cells
Description: Next-generation sequencing of sorted cell populations encoding the ZF library was based on GFP expression. […] The experimental procedure was as described in Example 16.

DDB1ΔB-CRBN [2] = test: TR-FRET of SALL4 degron binding to CRBN; parameters: species or system human; details: for IMiD induced CRBN binding: purified proteins, SALL4 point mutants; for IMiD-dependent dimerization / binding affinity to CRBN: SALL4 degron tags, biochemical assays
Procedure: Compounds in binding assays were dispensed into a 384-well microplate (Corning, 4514) using the D300e Digital Dispenser (HP) normalized to 1% DMSO and containing 100 nM biotinylated Strep-Avi-SALL4 (WT or mutant, see, FIG. 3A-FIG. 3K), 1 μM His6-DDB1ΔB-His6-CRBNBODIPY-Spycatcher and 4 nM terbium-coupled streptavidin (Invitrogen) in a buffer containing 50 mM Tris pH 7.5, 100 mM NaCl, 1 mM TCEP, 0.1% Pluronic F-68 solution (Sigma). Before TR-FRET measurements were conducted, the reactions were incubated for 15 minutes at room temperature (RT). After excitation of terbium fluorescence at 337 nm, emission at 490 nm (terbium) and 520 nm (boron-dipyrromethene (BODIPY)) were recorded with a 70 μs delay over 600 μs to reduce background fluorescence and the reaction was followed over 30×200 second cycles of each data point using a PHERAstar® FS microplate reader (BMG Labtech). The TR-FRET signal of each data point was extracted by calculating the 520/490 nm ratios. Data from three independent measurements (n=3), each calculated as an average of 5 technical replicates per well per experiment, was plotted and the half maximal effective concentrations EC50 values calculated using variable slope equation in GraphPad Prism 7. […] The resulting data were fitted as described previously. (Petzold et al., Nature 532:127-130 (2016)).

[3] = test system: Kelly cells transiently transfected with Flag-hsSALL4; test: Western blot of Flag-hsSALL4 levels in Kelly cells treated with thalidomide; assay type: cell-based; details: 24 hours
Procedure: Kelly cells were transiently transfected with hsSALL4^G416A or Flag-hsSALL4^G416N were treated with increasing concentrations of thalidomide or DMSO as a control. Following 24 hours of incubation, SALL4 (α-Flag) and GAPDH protein levels were assessed by western blot analysis (FIG. 4A). (See, Example 7 for western blot method.)
Kelly cells transiently transfected with Flag-hsSALL4WT, Flag-hsSALL4G600A, or hsSALL4G600N were treated with increasing concentrations of thalidomide or DMSO as a control. Following 24 h of incubation, SALL4 (α-Flag) and GAPDH protein levels were assessed by western blot analysis (one representative experiment is shown out of three replicates).
Cells were treated with compounds as indicated and incubated for 24 hours, or as indicated. Samples were run on 4-20% or Any kD™ SDS-PAGE Gels (Bio-rad), and transferred to polyvinylidene fluoride (PVDF) membranes using the iBlot® 2.0 dry blotting system (Thermo Fisher Scientific). Membranes were blocked with LI-COR® blocking solution (LI-COR®), and incubated with primary antibodies overnight, followed by three washes in LI-COR® blocking solution and incubation with secondary antibodies for one hour in the dark. After three final washes, the membranes were imaged on a LI-COR® fluorescent imaging station.

DDB1ΔB-CRBN [4] = molecular target: T2, DDB1ΔB-CRBN (Homo sapiens, UniProt Q96SW2); test: IKZF1Δ TR-FRET dimerization assay; assay type: binding; details: titration of IMiDs
T2 construct: 3C protease site (N); made in house; host or cells: Trichoplusia ni High Five insect cells (baculovirus)
T2 sequence (Q96SW2 whole entry, stated change not applied): as the sequence (Q96SW2 whole entry partner, one chain of several, the tested form may be a part) above
Procedure: Compounds in dimerization assays were dispensed in a 384-well microplate (Corning, 4514) using D300e Digital Dispenser (HP) normalized to 2% DMSO into 80 nM biotinylated StrepII-avi-IKZF1Δ (See, Figure legends), 100 nM His6-DDB1ΔB-His6-CRBNBODIPY-Spycatcher and 2 nM terbium-coupled streptavidin (Invitrogen™) in a buffer containing 50 mM Tris pH 7.5, 200 mM NaCl, 0.1% Pluronic F-68 solution (Sigma) and 2% DMSO (4% DMSO final). Before TR-FRET measurements were conducted, the reactions were incubated for 15 min at RT. After excitation of terbium fluorescence at 337 nm, emission at 490 nm (terbium) and 520 nm (BODIPY) were recorded with a […] to reduce background fluorescence and the reaction was followed over 30 200 second cycles of each data point using a PHERAstar® FS microplate reader (BMG Labtech). The TR-FRET signal of each data point was extracted by calculating the 520/490 nm ratio. The 520/490 nm ratios in IKZF1Δ TR-FRET assays were plotted to calculate or IC50 (for compound titrations) using GraphPad Prism 7 variable slope equation. The standard deviation in IKZF1Δ TR-FRET compound titrations was calculated from three independent replicates (n=3), or as an average of 5 technical replicates of single experiment for unlabeled protein titrations.
Titration of the indicated molecules to DDB1ΔB-CRBNSPYCATCHER-BODIPY, Terbium-streptavidin and IKZF1Δbiotin. […]

Q: Which “degradation of eGFP-IKZF1Δ fusion” value (eGFP-IKZF1Δ fusion) does the source give for `Nc1cccc2c1CN(C1CCC(=O)NC1=O)C2=O` (stereo not drawn) [lenalidomide] here?
A: The value was “potent degradation”.

Q: For `Nc1cccc2c1C(=O)N(C1CCC(=O)NC1=O)C2=O` (stereo not drawn) [pomalidomide], which “degradation of eGFP-IKZF1Δ fusion” value (eGFP-IKZF1Δ fusion) is on record?
A: The value was “potent degradation”.

Q: For `O=C1CCC(N2C(=O)c3ccccc3C2=O)C(=O)N1` (stereo not drawn) [thalidomide], which “degradation of eGFP-IKZF1Δ fusion” value (eGFP-IKZF1Δ fusion) is on record?
A: Its value is “potent degradation”.

Q: Which “degradation by iberdomide relative to control sequences” value [1] does the source give for “CC220-1: zinc finger degron FYCTQCGAAFDRWEELYNHLLNH (SEQ ID NO: 185)” here?
A: Its value is “more efficiently degraded by iberdomide (aka CC-220) than the indicated control sequences”.

Q: Which “degradation by iberdomide relative to control sequences” value [1] does the source give for “CC220-2: zinc finger degron MQCEICGFTCRRAEELNTHLNKH (SEQ ID NO: 186)” here?
A: Its value is “more efficiently degraded by iberdomide (aka CC-220) than the indicated control sequences”.

Q: How did the “degradation by iberdomide relative to control sequences” value [1] turn out when “CC220-3: zinc finger degron FYCKQCGANFSRWEELYNHLKAH (SEQ ID NO: 187)” was run?
A: Its value is “more efficiently degraded by iberdomide (aka CC-220) than the indicated control sequences”.

Q: What does the source list for “G416A: SALL4 with G416A point mutation in ZnF2”?
A: IMiD induced CRBN binding (DDB1ΔB-CRBN [2]): abrogated IMiD induced CRBN binding; protein degradation in cells [3]: disable degradation in cells

Q: Which “IMiD-dependent dimerization / binding affinity to CRBN” value (DDB1ΔB-CRBN [2]) does the source give for “Q595H: SALL4 ZnF4 with mutation of glutamine 595 residue” here?
A: The value was “reduced binding affinity”.

Q: And the “protein degradation in cells” value [3]?
A: The value was “no effect at the ability of the protein product to be degraded”.

B1: IKZF1 (SEQ ID NO: 18): non-naturally occurring degron tag of SEQ ID NO: 18 (protein)
chain: RMLDASGEKMNGSHRDQGSSALSGVGGIRLPNGKLKCDICGIICIGPNVLMVHKRSHTGERPFQCNQCGASFTQKGNLLRHIKLHSGEKPFKCHLCNYACRRRDALTGHLRTHSVIKEETNHSEMAEDLCK
Q: With B1 as the molecule, how does the “dimerization between CRBN-DDB1ΔB and IKZF1Δ” value (DDB1ΔB-CRBN [4]) read?
A: The value was “Potent dimerization”.

B2: G416N: SALL4 with G416N point mutation in ZnF2 (protein)
chain: ALYKHKCKYCSKVFGTDSSLQIHLRSHTGERPFVCSVCNHRFTTKGNLKVHFHRHPQVKAN
modifications: left off: small tags and cut ends
notes: SALL4 with G416N point mutation in ZnF2
Q: How did the “IMiD induced CRBN binding” value (DDB1ΔB-CRBN [2]) turn out when B2 was run?
A: The value was “abrogated IMiD induced CRBN binding”.

Q: And the “protein degradation in cells” value [3]?
A: Its value is “disable degradation in cells”.

B3: S388N: SALL4 ZnF1-2 with S388N mutation in ZnF1 (SEQ ID NO: 84) (protein)
chain: B2 chain with S11N, N39G
Q: With B3 as the molecule, how does the “IMiD induced CRBN binding” value (DDB1ΔB-CRBN [2]) read?
A: Its value is “maintained IMiD induced CRBN binding”.

B4: SALL4 ZnF1-2: degron tag SEQ ID NO: 27 (protein)
chain: B2 chain with N39G
Q: Which “IMiD-dependent dimerization / binding affinity to CRBN” value (DDB1ΔB-CRBN [2]) does the source give for B4 here?
A: Its value is “sufficient to induce efficient dimerization”.
